In PubChem BioAssay AID330 (DTP/NCI, 2004):
Where “and” joins values, the source holds several entries; their conditions need not be identical. Equal values may be shown once. Inconclusive results and toxic doses are left out. How the source made its calls: active means survival T/C of 150% or more; inactive means T/C below 125% in these data.

Test system: P388 leukemia ip, CD2F1 mice, survival T/C
Assay: NCI In Vivo Anticancer Drug Screen. Data for tumor model P388 Leukemia (intraperitoneal) in CD2F1 (CDF1) mice
Details: endpoint: median survival time, higher = longer survival
Procedure, shortened: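 Mice carrying the transplanted tumor received test compound or vehicle. Survival was recorded in each group, and the value is the treated-group measurement divided by that of the vehicle-treated control group.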

[1] = dose: 60.0 mg/kg/injection, schedule: Q01DX005 (ip), vehicle: Klucel (hydroxypropylcellulose) (HPC)
[2] = dose: 120.0 mg/kg/injection, schedule: Q01DX005 (ip), vehicle: Klucel (hydroxypropylcellulose) (HPC)
[3] = dose: 240.0 mg/kg/injection, schedule: Q01DX005 (ip), vehicle: Klucel (hydroxypropylcellulose) (HPC)
[4] = dose: 12.5 mg/kg/injection, schedule: Q01DX009 (ip), vehicle: saline with Tween-80
[5] = dose: 25.0 mg/kg/injection, schedule: Q01DX009 (ip), vehicle: saline with Tween-80
[6] = dose: 50.0 mg/kg/injection, schedule: Q01DX009 (ip), vehicle: saline with Tween-80
[7] = dose: 50.0 mg/kg/injection, schedule: Q01DX005 (ip), vehicle: Klucel (hydroxypropylcellulose) (HPC)
[8] = dose: 100.0 mg/kg/injection, schedule: Q01DX005 (ip), vehicle: Klucel (hydroxypropylcellulose) (HPC)
[9] = dose: 200.0 mg/kg/injection, schedule: Q01DX005 (ip), vehicle: Klucel (hydroxypropylcellulose) (HPC)
[10] = dose: 60.0 mg/kg/injection, schedule: Q01DX005 (ip), vehicle: saline with Tween-80
[11] = dose: 120.0 mg/kg/injection, schedule: Q01DX005 (ip), vehicle: saline with Tween-80
[12] = dose: 240.0 mg/kg/injection, schedule: Q01DX005 (ip), vehicle: saline with Tween-80
[13] = dose: 50.0 mg/kg/injection, schedule: Q01DX005 (ip), vehicle: saline with Tween-80
[14] = dose: 100.0 mg/kg/injection, schedule: Q01DX005 (ip), vehicle: saline with Tween-80
[15] = dose: 200.0 mg/kg/injection, schedule: Q01DX005 (ip), vehicle: saline with Tween-80
[16] = dose: 25.0 mg/kg/injection, schedule: Q01DX009 (ip), vehicle: saline
[17] = dose: 50.0 mg/kg/injection, schedule: Q01DX009 (ip), vehicle: saline
[18] = dose: 100.0 mg/kg/injection, schedule: Q01DX009 (ip), vehicle: saline with Tween-80
[19] = dose: 100.0 mg/kg/injection, schedule: Q01DX009 (ip), vehicle: saline
[20] = dose: 200.0 mg/kg/injection, schedule: Q01DX009 (ip), vehicle: saline with Tween-80
[21] = dose: 50.0 mg/kg/injection, schedule: Q01DX009 (ip), vehicle: Klucel (hydroxypropylcellulose) (HPC)
[22] = dose: 100.0 mg/kg/injection, schedule: Q01DX009 (ip), vehicle: Klucel (hydroxypropylcellulose) (HPC)
[23] = dose: 200.0 mg/kg/injection, schedule: Q01DX009 (ip), vehicle: Klucel (hydroxypropylcellulose) (HPC)

Measured: T/C

O=[Te]=O
inactive: dose: 3.12 mg/kg/injection, schedule: Q01DX005 (ip), vehicle: saline 103 % of control | dose: 6.25 mg/kg/injection, schedule: Q01DX005 (ip), vehicle: saline 110 % of control | dose: 12.5 mg/kg/injection, schedule: Q01DX005 (ip), vehicle: saline 105 % of control and 116 % of control

COC(=O)c1[c]([Sn]([CH3])([CH3])[CH3])n[n]([Pb]([CH3])([CH3])[CH3])c1C(=O)OC
inactive: dose: 6.25 mg/kg/injection, schedule: Q04DX003 (ip), vehicle: saline 95 % of control | dose: 12.5 mg/kg/injection, schedule: Q04DX003 (ip), vehicle: saline 95 % of control | dose: 25.0 mg/kg/injection, schedule: Q04DX003 (ip), vehicle: saline 95 % of control

O=c1[nH]nc2c3cccc4cccc(c5ccc(O)c1c52)c43
inactive: [1] 103 % of control | [2] 97 % of control | [3] 97 % of control

CCCOC(=O)/C=C(\I)C(=O)OCCC
inactive: [4] 119 % of control | [5] 110 % of control | [6] 110 % of control and 92 % of control

CC(C)C(=O)CC(c1ccccc1)P(=O)(c1ccccc1)c1ccccc1 (stereo unspecified)
inactive: [7] 102 % of control | [8] 103 % of control | [9] 103 % of control

COCC1(C)CCCC2(C)C1CCC13CCC(OC)CC12O3 (stereo unspecified)
inactive: dose: 100.0 mg/kg/injection, schedule: Q01DX001 (ip), vehicle: saline 115 % of control | dose: 200.0 mg/kg/injection, schedule: Q01DX001 (ip), vehicle: saline 106 % of control | dose: 400.0 mg/kg/injection, schedule: Q01DX001 (ip), vehicle: saline 94 % of control

CCCCCCC1([N+](=O)[O-])CN(C)CC2CCCCN2C1 (stereo unspecified)
inactive: dose: 100.0 mg/kg/injection, schedule: Q04DX002 (ip), vehicle: saline 109 % of control | dose: 200.0 mg/kg/injection, schedule: Q04DX002 (ip), vehicle: saline 97 % of control

O=C(O)COc1c2occc2cc2ccc(=O)oc12
inactive: [10] 97 % of control | [11] 96 % of control | [12] 100 % of control

CC(=O)Nc1ccc(Nc2cc(S(=O)(=O)O)c(N)c3c2C(=O)c2ccccc2C3=O)cc1
inactive: dose: 60.0 mg/kg/injection, schedule: Q01DX005 (ip), vehicle: saline 92 % of control | dose: 120.0 mg/kg/injection, schedule: Q01DX005 (ip), vehicle: saline 95 % of control | dose: 240.0 mg/kg/injection, schedule: Q01DX005 (ip), vehicle: saline 92 % of control

FC(F)(F)c1cccc(C(Nc2nncs2)Nc2nncs2)c1
inactive: [13] 96 % of control | [14] 91 % of control | [15] 88 % of control

COc1cc2c(c(OC)c1OC)-c1c(cc3c(c1OC)OCO3)CC(C)C(C)(O)C2OC(=O)c1ccccc1 (stereo unspecified)
inactive: dose: 11.25 mg/kg/injection, schedule: Q01DX009 (ip), vehicle: saline + alcohol 104 % of control | dose: 22.5 mg/kg/injection, schedule: Q01DX009 (ip), vehicle: saline + alcohol 104 % of control | dose: 45.0 mg/kg/injection, schedule: Q01DX009 (ip), vehicle: saline + alcohol 95 % of control | dose: 90.0 mg/kg/injection, schedule: Q01DX009 (ip), vehicle: saline + alcohol 97 % of control

CCCC(=O)Nc1nc2ccc([N+](=O)[O-])cc2s1
inactive: [4] 106 % of control | dose: 12.5 mg/kg/injection, schedule: Q01DX009 (ip), vehicle: saline 97 % of control | [5] 97 % of control | [16] 98 % of control | [6] 99 % of control and 123 % of control | [17] 98 % of control | [18] 110 % of control and 96 % of control | [19] 101 % of control | [20] 108 % of control

CN(C)CS/C(=N\C(O)C(Cl)(Cl)Cl)NC(O)C(Cl)(Cl)Cl (stereo unspecified)
inactive: [7] 97 % of control | [8] 99 % of control | [9] 99 % of control

CCc1ccccc1NC(=O)NCC(C)C
inactive: [21] 105 % of control | [22] 97 % of control | [23] 105 % of control

CC1=C(C)C2(C)S(=O)Nc3ccccc3C12C (stereo unspecified)
inactive: [1] 99 % of control | [2] 99 % of control | [3] 87 % of control

Cc1cc2nc(SCC(N)=O)nn2c(C)n1
inactive: [10] 100 % of control | [11] 100 % of control | [12] 99 % of control

Nc1c(CC(=O)O)cccc1C(=O)c1ccccc1
inactive: [17] 87 % of control | [19] 92 % of control

O=C([O-])c1ccccc1[O-].[Cu+2].c1cnc2c(c1)ccc1cccnc12
inactive: dose: 100.0 mg/kg/injection, schedule: Q04DX002 (ip), vehicle: Klucel (hydroxypropylcellulose) (HPC) 109 % of control

O=C(O)c1cc(O)ccc1O
inactive: [16] 104 % of control | [17] 90 % of control | [19] 97 % of control | dose: 200.0 mg/kg/injection, schedule: Q01DX009 (ip), vehicle: saline 94 % of control

CC(=O)OCC(COC(C)=O)=C1N=C(c2ccccc2)OC1=O
inactive: dose: 100.0 mg/kg/injection, schedule: Q04DX003 (ip), vehicle: saline with Tween-80 100 % of control | dose: 200.0 mg/kg/injection, schedule: Q04DX003 (ip), vehicle: saline with Tween-80 100 % of control | dose: 400.0 mg/kg/injection, schedule: Q04DX003 (ip), vehicle: saline with Tween-80 100 % of control

Nn1c(-c2nn[nH]n2)nnc1-c1nn[nH]n1
inactive: dose: 25.0 mg/kg/injection, schedule: Q01DX005 (ip), vehicle: Klucel (hydroxypropylcellulose) (HPC) 100 % of control | [7] 100 % of control | [8] 95 % of control

CC(=O)ONC(=O)CSc1nn2cc(-c3ccccc3)nc2s1
inactive: [13] 103 % of control | [14] 97 % of control | [15] 95 % of control

Oc1ccccc1C1=NC(c2ccccc2)NC(c2ccccc2)C1 (stereo unspecified)
inactive: [6] 88 % of control | [18] 93 % of control

COc1ccc(C(=O)Nc2cccnc2)cc1
inactive: [21] 98 % of control | [22] 100 % of control | [23] 98 % of control

Clc1ccc2noc(-c3ccccc3)c2c1
inactive: [6] 94 % of control | [18] 91 % of control | [20] 98 % of control | dose: 400.0 mg/kg/injection, schedule: Q01DX009 (ip), vehicle: saline with Tween-80 94 % of control

COC1C(OC(N)=O)C(O)C(Oc2ccc3c(O)c(NC(=O)c4ccc(O)c(CC=C(C)C)c4)c(=O)oc3c2C)OC1(C)C (stereo unspecified)
inactive: dose: 25.0 mg/kg/injection, schedule: Q01DX009 (ip), vehicle: Klucel (hydroxypropylcellulose) (HPC) 100 % of control | [7] 109 % of control | [21] 95 % of control | [8] 106 % of control | [22] 100 % of control | [9] 109 % of control | [23] 103 % of control
